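These data come from cells grown in 96-well plates and exposed to compound for 48 hours at five concentrations. The concentration for 50% growth inhibition is given as GI50. TGI marks complete inhibition of growth.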
Columns and labels:
Test in all cases: NCI tumour cell line growth inhibition, 48 h
KM12 colon = system: KM12 colon
A498 renal = system: A498 renal
PC-3 prostate = system: PC-3 prostate
MDA-MB-435 = system: MDA-MB-435
DU-145 prostate = system: DU-145 prostate
SF-539 CNS = system: SF-539 CNS
RXF 393 renal = system: RXF 393 renal
CAKI-1 renal = system: CAKI-1 renal
HCT-116 colon = system: HCT-116 colon
KM20L2 colon = system: KM20L2 colon
NCI-H23 lung = system: NCI-H23 lung
SR leukemia = system: SR leukemia

Question: Which results are given for `CC(=O)OC/C=C/Cn1ncc(=O)[nH]c1=O`?
Answer: TGI (KM12 colon): > 100 µM; TGI (A498 renal): > 100 µM; TGI (PC-3 prostate): > 100 µM; TGI (MDA-MB-435): > 100 µM; TGI (DU-145 prostate): > 100 µM; TGI (SF-539 CNS): > 100 µM; TGI (RXF 393 renal): > 100 µM; TGI (CAKI-1 renal): > 100 µM

Question: With `Nc1nncc2c1ccn2C1OC(CO)C(O)C1O` (stereo not drawn) as the molecule, how does the TGI (HCT-116 colon) read?
Answer: > 100 µM

Question: And the TGI (KM20L2 colon)?
Answer: > 100 µM

Question: What about the TGI (KM12 colon) of the same molecule?
Answer: > 100 µM

Question: And the TGI (A498 renal)?
Answer: > 100 µM

Question: And the TGI (NCI-H23 lung)?
Answer: > 100 µM

Question: What about the TGI (SR leukemia) of the same molecule?
Answer: > 100 µM

Question: What about the TGI (SF-539 CNS) of the same molecule?
Answer: > 100 µM

Question: What about the TGI (RXF 393 renal) of the same molecule?
Answer: > 100 µM

Question: How did the TGI (HCT-116 colon) turn out when `Cc1ccc(S(=O)(=O)N/N=c2\c(C)c(C3=NS(=O)(=O)c4cc(S(N)(=O)=O)c(Cl)cc4N3)oc3c(Cl)cc(Cl)cc23)cc1` was run?
Answer: > 100 µM

Question: What about the TGI (KM20L2 colon) of the same molecule?
Answer: > 100 µM

Question: What about the TGI (KM12 colon) of the same molecule?
Answer: > 100 µM

Question: What about the TGI (A498 renal) of the same molecule?
Answer: > 100 µM

Question: What about the TGI (NCI-H23 lung) of the same molecule?
Answer: > 100 µM

Question: And the TGI (SR leukemia)?
Answer: > 100 µM

Question: And the TGI (SF-539 CNS)?
Answer: > 100 µM

Question: And the TGI (RXF 393 renal)?
Answer: > 100 µM

Question: And the TGI (CAKI-1 renal)?
Answer: > 100 µM

Question: How did the TGI (HCT-116 colon) turn out when `CCOC(=O)Nc1cc2c(c(N)n1)N=C(c1ccccc1)[C@H](C)N2` was run?
Answer: 0.0173 µM

Question: And the TGI (KM20L2 colon)?
Answer: < 0.0001 µM

Question: And the GI50 (A498 renal)?
Answer: < 0.0001 µM

Question: What about the TGI (NCI-H23 lung) of the same molecule?
Answer: 0.0464 µM

Question: And the TGI (MDA-MB-435)?
Answer: < 0.0001 µM

Question: What about the GI50 (SF-539 CNS) of the same molecule?
Answer: 0.0269 µM

Question: What about the TGI (SF-539 CNS) of the same molecule?
Answer: 0.0669 µM

Question: How did the TGI (HCT-116 colon) turn out when `O=C(CCl)NC(Cc1ccc(F)cc1)C(=O)O` (stereo not drawn) was run?
Answer: > 100 µM

Question: What about the TGI (KM20L2 colon) of the same molecule?
Answer: > 100 µM

Question: What about the TGI (KM12 colon) of the same molecule?
Answer: > 100 µM

Question: What about the TGI (A498 renal) of the same molecule?
Answer: > 100 µM

Question: What about the TGI (NCI-H23 lung) of the same molecule?
Answer: > 100 µM

Question: What about the TGI (SF-539 CNS) of the same molecule?
Answer: > 100 µM

Question: What about the TGI (CAKI-1 renal) of the same molecule?
Answer: > 100 µM

Question: For `Oc1c2c(c3c4c1N=CC=4CCN=3)-c1c(Br)cc(Br)cc1CCN2`, which TGI (HCT-116 colon) is on record?
Answer: 4.47 µM

Question: What about the TGI (KM20L2 colon) of the same molecule?
Answer: 8.2 µM

Question: And the TGI (KM12 colon)?
Answer: 9.21 µM

Question: And the TGI (A498 renal)?
Answer: 24.7 µM

Question: And the TGI (NCI-H23 lung)?
Answer: 3.88 µM

Question: And the TGI (SF-539 CNS)?
Answer: 9.46 µM

Question: What about the TGI (RXF 393 renal) of the same molecule?
Answer: 20.2 µM

Question: What about the TGI (CAKI-1 renal) of the same molecule?
Answer: 51.1 µM

Question: How did the TGI (KM12 colon) turn out when `CC(=O)O[C@H]1CC[C@@]2(C)C(=CC[C@@H]3[C@@H]2CC[C@]2(C)Nc4c(cnn4S(C)(=O)=O)C[C@@H]32)C1` was run?
Answer: > 100 µM

Question: What about the TGI (A498 renal) of the same molecule?
Answer: > 100 µM

Question: What about the TGI (PC-3 prostate) of the same molecule?
Answer: > 100 µM

Question: And the TGI (NCI-H23 lung)?
Answer: > 100 µM

Question: What about the TGI (MDA-MB-435) of the same molecule?
Answer: > 100 µM

Question: And the TGI (DU-145 prostate)?
Answer: > 100 µM

Question: What about the TGI (SR leukemia) of the same molecule?
Answer: > 100 µM

Question: What about the TGI (RXF 393 renal) of the same molecule?
Answer: 92.2 µM

Question: And the TGI (CAKI-1 renal)?
Answer: > 100 µM

Question: What does the source list for `COc1cc(N/N=C/C#N)cc(OC)c1OC`?
Answer: TGI (HCT-116 colon): > 10 µM; TGI (KM12 colon): > 10 µM; TGI (A498 renal): > 10 µM; TGI (PC-3 prostate): > 10 µM; TGI (NCI-H23 lung): > 10 µM; TGI (MDA-MB-435): > 10 µM; TGI (DU-145 prostate): > 10 µM; TGI (SR leukemia): > 10 µM; TGI (SF-539 CNS): > 10 µM; TGI (RXF 393 renal): > 10 µM; TGI (CAKI-1 renal): > 10 µM

Question: How did the GI50 (HCT-116 colon) turn out when `CC[C@H](Nc1nc(N)nc(C)c1C#N)c1nc2cccc(NCc3ccc(C(=O)NO)cc3)c2c(=O)n1-c1ccccc1` was run?
Answer: 1.82 µM

Question: And the TGI (HCT-116 colon)?
Answer: 4.34 µM

Question: And the GI50 (KM12 colon)?
Answer: 1.7 µM

Question: And the TGI (KM12 colon)?
Answer: 3.29 µM

Question: And the GI50 (A498 renal)?
Answer: 1.04 µM

Question: And the TGI (A498 renal)?
Answer: 2.42 µM

Question: And the GI50 (PC-3 prostate)?
Answer: 0.905 µM

Question: And the TGI (PC-3 prostate)?
Answer: 3.3 µM

Question: And the GI50 (DU-145 prostate)?
Answer: 1.98 µM

Question: And the TGI (DU-145 prostate)?
Answer: 6.53 µM

Question: And the GI50 (SR leukemia)?
Answer: 0.697 µM

Question: And the TGI (SR leukemia)?
Answer: > 100 µM

Question: What about the GI50 (SF-539 CNS) of the same molecule?
Answer: 1.56 µM

Question: And the TGI (SF-539 CNS)?
Answer: 3.63 µM

Question: And the GI50 (RXF 393 renal)?
Answer: 1.21 µM

Question: And the TGI (RXF 393 renal)?
Answer: 3.05 µM

Question: Which TGI (HCT-116 colon) does the source give for `Cc1ccc([N+](=O)[O-])cc1NC(=O)C(=O)C(C(=O)c1ccccc1F)C1OC(=O)c2ccccc21` (stereo not drawn) here?
Answer: 91.8 µM

Question: What about the TGI (KM20L2 colon) of the same molecule?
Answer: > 100 µM

Question: What about the TGI (KM12 colon) of the same molecule?
Answer: > 100 µM

Question: And the TGI (A498 renal)?
Answer: > 100 µM

Question: What about the TGI (NCI-H23 lung) of the same molecule?
Answer: > 100 µM

Question: What about the TGI (SR leukemia) of the same molecule?
Answer: > 100 µM

Question: What about the TGI (SF-539 CNS) of the same molecule?
Answer: 67.3 µM

Question: What about the TGI (RXF 393 renal) of the same molecule?
Answer: 53.9 µM

Question: And the TGI (CAKI-1 renal)?
Answer: > 100 µM

Question: What does the source list for `NC(=S)Nc1cc(Cl)ccc1Cl`?
Answer: TGI (HCT-116 colon): > 100 µM; TGI (KM20L2 colon): > 100 µM; TGI (KM12 colon): > 100 µM; TGI (A498 renal): > 100 µM; TGI (NCI-H23 lung): > 100 µM; TGI (SR leukemia): > 100 µM; TGI (SF-539 CNS): > 100 µM; TGI (RXF 393 renal): > 100 µM; TGI (CAKI-1 renal): > 100 µM

Question: Which TGI (HCT-116 colon) does the source give for `N=c1nc2n(cc1F)[C@@H]1O[C@H](CO)[C@@H](O)[C@@H]1O2` here?
Answer: > 100 µM

Question: What about the TGI (KM20L2 colon) of the same molecule?
Answer: > 100 µM

Question: What about the TGI (KM12 colon) of the same molecule?
Answer: > 100 µM

Question: And the TGI (A498 renal)?
Answer: > 100 µM

Question: And the TGI (PC-3 prostate)?
Answer: > 100 µM

Question: What about the TGI (NCI-H23 lung) of the same molecule?
Answer: > 55.8 µM

Question: And the TGI (MDA-MB-435)?
Answer: > 100 µM

Question: What about the TGI (DU-145 prostate) of the same molecule?
Answer: > 100 µM

Question: And the TGI (SR leukemia)?
Answer: > 73.7 µM

Question: And the TGI (SF-539 CNS)?
Answer: > 77.2 µM

Question: And the TGI (RXF 393 renal)?
Answer: > 56.2 µM

Question: What about the TGI (CAKI-1 renal) of the same molecule?
Answer: > 100 µM
